From US20240269489A1, “TREATMENT OF THE CENTRAL NERVOUS SYSTEM” (ACT Therapeutics Ltd, priority 2021, published 2024) come the findings set out here.

This data set relates to subcutaneous prostate cancer model (PC3). Put plainly: Tumour specific uptake of Evans Blue after ACT, variable Enhancement MI. In kind it is in vivo, mice. Conditions: cluster composition 2 mL/kg i.v.; Enhancement 0.5 MHz, MI 0, 0.1, 0.2, 0.3, 0.4; tumours excised 30 min after treatment. The procedure:
To investigate the effect of MI variance of the US Enhancement field, tumour specific uptake of Evans Blue (EB, fluorescent dye) has been investigated in a subcutaneous prostate cancer model (PC3) in mice. Five groups with Enhancement insonation MIs of 0, 0.1, 0.2, 0.3 and 0.4 were investigated (N=3 animals per group). […] 30 min after treatment, the tumors were excised and the amount of EB was measured by spectrophotometry at 620 nm.

Turning to `Cc1cc(-c2ccc(/N=N/c3ccc4c(S(=O)(=O)O)cc(S(=O)(=O)O)c(N)c4c3O)c(C)c2)ccc1/N=N/c1ccc2c(S(=O)(=O)O)cc(S(=O)(=O)O)c(N)c2c1O` [Evans Blue], the “tissue uptake of Evans Blue as a function of Enhancement MI” value was “increases from no US (MI=0) to MI=0.1 and further with MI=0.2, but then drops again with MI=0.3”.
